Reference: the supplement of paper PMC4932681

Key:
Assay in all cases: viability inhibition at highest dose (% inhibition); higher = more growth inhibition
ZR-75-1 Tam1 = details: 4-OH-tamoxifen in medium 1 µM; 72 h
Protocol: (§1)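 Percent inhibition of viability (CellTiter-Glo, 72 h) at the highest tested concentration (D5), normalised to DMSO (0%) and 100 µM benzethonium chloride (100%). Resistant lines and the 'in 1µM tamoxifen' arms were tested in 1 µM 4-OH-tamoxifen.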

ZR-75-1 Tam2 = details: 4-OH-tamoxifen in medium 1 µM; 72 h
Protocol: as §1

BT-474 Tam1 = details: 4-OH-tamoxifen in medium 1 µM; 72 h
Protocol: as §1

MCF-7 = details: 72 h
Protocol: as §1

T-47D Tam2 = details: 4-OH-tamoxifen in medium 1 µM; 72 h
Protocol: as §1

MCF-7 Tam1 = details: 4-OH-tamoxifen in medium 1 µM; 72 h
Protocol: as §1

T-47D Tam1 = details: 4-OH-tamoxifen in medium 1 µM; 72 h
Protocol: as §1

BT-474 Tam2 = details: 4-OH-tamoxifen in medium 1 µM; 72 h
Protocol: as §1

ZR-75-1 = details: 72 h
Protocol: as §1

BT-474 = details: 72 h
Protocol: as §1

T-47D = details: 72 h
Protocol: as §1

SMILES | viability inhibition at highest dose (ZR-75-1 Tam1) | viability inhibition at highest dose (ZR-75-1 Tam2) | viability inhibition at highest dose (BT-474 Tam1) | viability inhibition at highest dose (MCF-7; 4-OH-tamoxifen in medium 0 µM) | viability inhibition at highest dose (MCF-7; 4-OH-tamoxifen in medium 1 µM) | viability inhibition at highest dose (T-47D Tam2) | viability inhibition at highest dose (MCF-7 Tam1) | viability inhibition at highest dose (T-47D Tam1) | viability inhibition at highest dose (BT-474 Tam2) | viability inhibition at highest dose (ZR-75-1; 4-OH-tamoxifen in medium 0 µM) | viability inhibition at highest dose (ZR-75-1; 4-OH-tamoxifen in medium 1 µM) | viability inhibition at highest dose (BT-474; 4-OH-tamoxifen in medium 0 µM) | viability inhibition at highest dose (BT-474; 4-OH-tamoxifen in medium 1 µM) | viability inhibition at highest dose (T-47D; 4-OH-tamoxifen in medium 0 µM) | viability inhibition at highest dose (T-47D; 4-OH-tamoxifen in medium 1 µM)
CC1(C)CNc2cc(NC(=O)c3cccnc3NCc3ccncc3)ccc21 [Motesanib  (AMG-706)] (drug 10000 nM) | -1.35 | -1.27 | -2.75 | -2.53 | 1.3 | 12.6 | -1.95 | 9.4 | -2.84 | -8.12 | -2.93 | -7.25 | -16.2 | -15.1 | -10.7
Nc1ncn([C@@H]2O[C@H](CO)[C@@H](O)[C@H]2O)c(=O)n1 [Azacitidine] (drug 10000 nM) | 11.9 | 7.49 | 1.3 | 31.9 | -0.966 | 21 | 1.85 | 23.6 | 17.2 | 11.2 | 0.709 | 11.1 | 12.4 | 16.3 | -5.14
CC(C)c1c(C(=O)Nc2ccccc2)c(-c2ccccc2)c(-c2ccc(F)cc2)n1CC[C@@H](O)C[C@@H](O)CC(=O)O [Atorvastatin] (drug 10000 nM) | 44.5 | 39.9 | 12.4 | 23.9 | 19.8 | 18.7 | 13.7 | 29.2 | 28.2 | 48.4 | 36.5 | 13.8 | 7.75 | 35.6 | 36.5
CN1CCN(c2nc(C3=C(c4c[nH]c5ccccc45)C(=O)NC3=O)c3ccccc3n2)CC1 [Sotrastaurin] (drug 10000 nM) | 9.64 | 7.03 | 65.2 | 21.3 | 10 | 6.92 | 8.16 | 8.91 | 25.2 | 6.75 | 14.4 | 9.38 | 48.9 | -8.99 | 1.91
CN(C)c1nc(N(C)C)nc(N(C)C)n1 [Altretamine] (drug 10000 nM) | 0.782 | -11.8 | 4.18 | -20.5 | 10.6 | 5.82 | -9.06 | 52.4 | 0.399 | -19.3 | -9.44 | -14.8 | -18.3 | -20.9 | 18.5
Nc1nc(Cl)nc2c1ncn2[C@@H]1O[C@H](CO)[C@@H](O)[C@@H]1F [Clofarabine] (drug 10000 nM) | 23.6 | 22.2 | -21.8 | 32.2 | 10.4 | 27.8 | -1.02 | 38.6 | -3.66 | 21.8 | 14.8 | -7.9 | -34.5 | 35.1 | 43
CC(C)C[C@H](NC(=O)[C@H](Cc1ccccc1)NC(=O)c1cnccn1)B(O)O [Bortezomib] (drug 1000 nM) | 71.5 | 64.6 | 98.8 | 74.1 | 92.4 | 96.2 | 73.6 | 97.2 | 98.7 | 71 | 64 | 62.6 | 97.9 | 94.5 | 93.6
COc1cccc2cc(-c3nc([C@H]4CC[C@H](C(=O)O)CC4)n4ncnc(N)c34)[nH]c12 [OSI-027] (drug 10000 nM) | 52.6 | 65.5 | 38.1 | 44.4 | 43.9 | 38 | 30.1 | 55.6 | 35.6 | 60.5 | 52.9 | 35.5 | 47.5 | 62.6 | 42.7
Nc1cccc2c1CN(C1CCC(=O)NC1=O)C2=O (stereo not given) [Lenalidomide] (drug 10000 nM) | 2.97 | -0.811 | 5.58 | -4.99 | 29.1 | -4.53 | -1.73 | -2.5 | 2.75 | -8.43 | -6.55 | -5.28 | -16.5 | -20.4 | -6.19
CC[C@]1(O)C[C@H]2CN(CCc3c([nH]c4ccccc34)[C@@](C(=O)OC)(c3cc4c(cc3OC)N(C=O)[C@H]3[C@@](O)(C(=O)OC)[C@H](OC(C)=O)[C@]5(CC)C=CCN6CC[C@]43[C@@H]65)C2)C1 [Vincristine] (drug 10000 nM) | 29.2 | 35.9 | 93.7 | 56.6 | 54.4 | 59 | 12.1 | 68.8 | 84.9 | 28.7 | 28.5 | 47.4 | 83.8 | 16.5 | 31.2
CS(=O)(=O)c1ccc(C(=O)Nc2ccc(Cl)c(-c3ccccn3)c2)c(Cl)c1 [Vismodegib] (drug 10000 nM) | 5.76 | 10.7 | 18.7 | 8.35 | 5.18 | 3.9 | 10.9 | -0.759 | 6.56 | -1.58 | 4.37 | 2.54 | 9.28 | 3.38 | 6.47
O=C(Cc1ccc(-c2ccc(OCCN3CCOCC3)cc2)cn1)NCc1ccccc1 [KX2-391] (drug 10000 nM) | 43.1 | 47.8 | 92.7 | 44.4 | 55.3 | 47.3 | 16.8 | 74.1 | 92.2 | 41.1 | 38.6 | 41 | 82.9 | 24.2 | 25.3
COc1cc2ncnc(Nc3ccc(F)c(Cl)c3)c2cc1OCCCN1CCOCC1 [Gefitinib] (drug 10000 nM) | 22.2 | 18.6 | 97.7 | 28 | 35.6 | 47.3 | 14.2 | 34.2 | 96.8 | 13.1 | 27.5 | 86.4 | 96.6 | 12.1 | 8.3
Oc1nc(-c2ccc(C(F)(F)F)cc2)nc2c1CSCC2 [XAV-939] (drug 10000 nM) | 3.25 | 12.7 | 9.15 | 7.77 | 11.1 | -6.24 | -5.47 | 22.1 | 10.1 | 5.02 | 3.5 | 2.3 | -20.3 | -0.891 | 1.95
CCC1(c2ccc(N)cc2)CCC(=O)NC1=O (stereo not given) [Aminoglutethimide] (drug 10000 nM) | 9.59 | 8.94 | 12.8 | -3.88 | 8.64 | 4.12 | 6.51 | 4.05 | -1.52 | 6.41 | 10.3 | -3.67 | 20 | -3.76 | 5.9
N#CC[C@H](C1CCCC1)n1cc(-c2ncnc3[nH]ccc23)cn1 (drug 10000 nM) | -14.2 | -7.38 | -28.1 | 1.33 | -20.6 | -5.81 | -11.4 | -14.3 | -31.9 | -0.421 | -1.41 | -21.3 | -53.3 | -12.9 | -14.9
Cc1sc2c(c1C)C(c1ccc(Cl)cc1)=N[C@@H](CC(=O)OC(C)(C)C)c1nnc(C)n1-2 [(+)JQ1] (drug 10000 nM) | 43.3 | 37.8 | 75 | 52.8 | 59.6 | 29.1 | 15.2 | 46.9 | 76.6 | 29.8 | 30.9 | 31.3 | 68.4 | 34.3 | 16.5
CNCc1ccc(-c2[nH]c3cc(F)cc4c3c2CCNC4=O)cc1 (drug 10000 nM) | -4.62 | 0.703 | 2.87 | 6.6 | 1.15 | 6.84 | -2.56 | 1.19 | -16.6 | -4.71 | -4.07 | -3.44 | -1.93 | -7.27 | -9.52
CNC(=O)c1ccc(N2C(=S)N(c3ccc(C#N)c(C(F)(F)F)c3)C(=O)C2(C)C)cc1F [Enzalutamide (MDV 3100)] (drug 10000 nM) | 6.65 | 5.9 | 7.43 | -11.1 | 14.2 | 7.78 | 5.74 | 14 | 14.2 | -12.4 | -0.801 | -1.06 | -10 | -6.05 | 1.03
Cn1cc(CNCC2CCN(c3ncc(C(=O)NO)cn3)CC2)c2ccccc21 (drug 1000 nM) | 37.4 | 48.7 | 83.8 | 89.3 | 90 | 71.1 | 21.6 | 86.6 | 74.7 | 47.6 | 37.9 | 88.3 | 94.3 | 94.3 | 94.1
CCC/C=C/C=C/C(=O)O[C@H]1/C(=C/C(=O)OC)C[C@H]2C[C@H]([C@@H](C)O)OC(=O)C[C@H](O)C[C@@H]3C[C@H](OC(C)=O)C(C)(C)[C@](O)(C[C@@H]4C/C(=C/C(=O)OC)C[C@H](/C=C/C(C)(C)[C@]1(O)O2)O4)O3 [Bryostatin 1] (drug 100 nM) | 10.2 | 3.49 | -4.14 | 3.91 | 14.2 | -13.3 | 9.71 | 10.5 | -0.0992 | 12.6 | -3.78 | 0.0548 | -6.89 | -5.82 | -5.94
CC(=O)[C@]1(O)Cc2c(O)c3c(c(O)c2[C@@H](O[C@H]2C[C@H](N)[C@H](O)[C@H](C)O2)C1)C(=O)c1ccccc1C3=O [Idarubicin] (drug 1000 nM) | 55.2 | 62.4 | 87.9 | 80.6 | 66.6 | 45.9 | 39.5 | 83.7 | 65 | 61.7 | 52.2 | 77.2 | 96.2 | 68.9 | 59.5
CN(C)C[C@@H]1CCn2cc(c3ccccc32)C2=C(C(=O)NC2=O)c2cn(c3ccccc23)CCO1 (drug 10000 nM) | 37.7 | 47.1 | 100 | 99.8 | 69.5 | 70.2 | 22.1 | 71.2 | 98 | 45.5 | 70.9 | 76 | 101 | 72.1 | 97.4
Cc1ccc(F)c(NC(=O)Nc2ccc(-c3cccc4[nH]nc(N)c34)cc2)c1 [Linifanib (ABT-869)] (drug 1000 nM) | -5.49 | -0.131 | -15 | -7.63 | 4.89 | -13.7 | -5.44 | 5.32 | -11.2 | -3.03 | -10.3 | -5.83 | -19 | -7.82 | -2.26
COc1c(C)cnc(Cn2cnc3c(Cl)nc(N)nc32)c1C [BIIB021] (drug 10000 nM) | 36.3 | 39.3 | 72.2 | 56.8 | 45.6 | 50 | 26.1 | 46 | 70.9 | 32.2 | 34.3 | 48.2 | 70.8 | 65.4 | 51.5
CN(C)/N=N/c1[nH]cnc1C(N)=O [Dacarbazine] (drug 10000 nM) | 0.27 | 6.57 | -7.07 | -17 | 10.7 | -1.82 | -11.3 | -0.257 | 6.76 | -2.8 | -13 | -13 | -17.3 | -8.78 | -10
O=S(=O)(c1cccc2cnccc12)N1CCCNCC1 [Fasudil  (HA-1077)] (drug 50000 nM) | 3.21 | -8.22 | -5.55 | 21 | -0.98 | 20.1 | 7.1 | 2.59 | -12.9 | -7.56 | -6.81 | -7 | -17.4 | -20.9 | -12.4
